In patent publication US20240270748A1 (Merck Patent GmbH, priority 2021, published 2024):

Test system: YAP-TEAD interaction
Experiment: SK-HEP-1 reporter assay (8xTEAD responsive elements driving NanoLuc luciferase)
Type: cell-based
Settings: Homo sapiens, SK-HEP1, SK-HEP-1 reporter assay
Procedure: To identify inhibitors of YAP-TEAD interaction, 8×TEAD responsive elements driving the NanoLuc® luciferase gene were stably integrated into SK-HEP-1 cells (ECACC #: 91091816).
For the assay, cells were treated in duplicates with the test compounds in a 10-point dose, with the top concentration starting at 30 μM (final concentration in assay). After a 24 hour incubation at 37° C., 95% rH, and 5% CO2, a luciferase substrate/lysis reagent mix (NanoGlo™, Promega) was added to the cells, allowing the quantification of cellular luciferase activity.
Cell Media: The cells were cultured in the following media: MEM, +10% FBS, +1× GlutaMAX, +1 mM Sodium-Pyruvate, +100 μM Non-essential amino acids, +0.1 mg/ml Hygromycin. The media used for the assay was: MEM (w/o Phenol Red), +10% FBS, +1× GlutaMAX, +1 mM Sodium-Pyruvate, +100 μM Non-essential amino acids, +0.5% Pen/Strep
Reagents: The reagents used are listed below:
Cell culture: The cells were examined using an inverted microscope to check for health and cell density. To dissociate adherent cells, the monolayer of cells was washed once with pre-warmed PBS. After removing the PBS, 3 ml pre-warmed Accutase® was added to a F75 flask, dispersed evenly and the flask was allowed to sit in incubator for ˜4-5 minutes.
When a single cell suspension was obtained, 7 ml of prewarmed growth media was added and resuspended with the cells. The cell suspension was transferred to a sterile 15 ml conical centrifuge tube, and spun for 5 min at 300×g, RT. The supernatant was discarded and the pellet was resuspended in 10 ml of pre-warmed growth media.
The total cell count was determined, and 20 μl of the desired cell number was added to each well of a 384 well plate using a Multidrop Combi. The plates were then incubated for 24 hours at 37° C., 95% rH, and 5% C02.
Compound treatment: 24 hours after seeding, the cells were treated with compounds.
A 1:333 dilution of compounds, diluted in DMSO, was made to get a final concentration of 0.3% DMSO per well. To transfer the compounds to the assay plate, […] was shot from Labcyte low dead volume plates to the cell plates containing 20 μl media/well with the ECHO 555 liquid handling system.
After treatment, the cells were fed with 20 μl fresh pre-warmed assay media using a Multidrop combi.
The assay plates were then incubated for another 24 h at 37° C., 95% rH, and 5% CO2.
Luciferase readout: 24 h after treatment, the plates were taken out of the incubator and were allowed to equilibrate to RT. 30 μl of NanoGlo® reagent was added to the plates in the dark. Plates were shaken for 20 min on a Teleshake (˜1500 rpm) in the dark. The luminescence was then measured using an EnVision microplate reader. The IC50 values were generated using Genedata Screener®.

Row | IC50 (class symbols) | IC50 (n.d. = value not detectable below threshold given in parentheses, ND = not determinable within the entire range) | SMILES
1 | 0.1 to 10 µM | – | Cn1cc2c3cc(S(=O)(=O)O)ccc3n(-c3ccc(C(F)(F)F)cc3)c2n1 [Example C43, 2-methyl-8-[4-(trifluoromethyl)phenyl]-2H,8H-pyrazolo[3,4-b]indole-5-sulfonic acid]
2 | 0.1 to 10 µM | – | Cn1cc2c3cc(NC(=O)CCN)ccc3n(-c3ccc(C(F)(F)F)cc3)c2n1 [Example C221, 3-amino-N-{2-methyl-8-[4-(trifluoromethyl)phenyl]-2H,8H-pyrazolo[3,4-b]indol-5-yl}propanamide]
3 | 0.1 to 10 µM | – | Cn1cc2c3cc(C(=O)N4CC[C@@H](O)C4)ccc3n(-c3ccc(C(F)(F)F)c(F)c3)c2n1 [Example C171, (3R)-1-{8-[3-fluoro-4-(trifluoromethyl)phenyl]-2-methyl-2H,8H-pyrazolo[3,4-b]indole-5-carbonyl}pyrrolidin-3-ol]
4 | 0.1 to 10 µM | – | Cn1nc2c3cc(C4CC(n5ccnn5)=NO4)ccc3n(-c3ccc(C(F)(F)F)cc3)c2n1 (centres unmarked) [Example C232, 1-(5-{2-methyl-4-[4-(trifluoromethyl)phenyl]-3H,4H-[1,2,3]triazolo[4,5-b]indol-7-yl}-4,5-dihydro-1,2-oxazol-3-yl)-1H-1,2,3-triazole]
5 | 0.1 to 10 µM | – | Cn1cc2c3cc(NC(=O)Cc4cccnc4)ccc3n(-c3ccc(C(F)(F)F)cc3)c2n1 [Example C23, N-{2-methyl-8-[4-(trifluoromethyl)-phenyl]-2H,8H-pyrazolo[3,4-b]indol-5-yl}-2-(pyridin-3-yl)acetamide]
6 | 0.1 to 10 µM | – | C[C@H](CCN)NC(=O)c1ccc2c(c1)c1cn(C)nc1n2-c1ccc(C(F)(F)F)cc1 [Example C27, N-[(2R)-4-aminobutan-2-yl]-2-methyl-8-[4-(trifluoromethyl)phenyl]-2H,8H-pyrazolo[3,4-b]indole-5-carboxamide]
7 | 0.1 to 10 µM | – | CNCCC(C)NC(=O)c1ccc2c(c1)c1cn(C)nc1n2-c1ccc(C(F)(F)F)cc1 (centres unmarked) [Example C58, 2-methyl-N-[4-(methylamino)butan-2-yl]-8-[4-(trifluoromethyl)phenyl]-2H,8H-pyrazolo[3,4-b]indole-5-carboxamide]
8 | 0.1 to 10 µM | – | Cn1cnc2c1c1cc(CO)ccc1n2-c1ccc(C(F)(F)F)cc1 [Example C132, {1-methyl-4-[4-(trifluoromethyl)phenyl]-1H,4H-imidazo[4,5-b]indol-7-yl}methanol]
9 | – | > 30 µM | Cn1nnc2c3cc(S(N)(=O)=O)ccc3n(-c3ccc(C(F)(F)F)cc3)c21 [Example C11, 3-methyl-4-[4-(trifluoromethyl)phenyl]-3H,4H-[1,2,3]triazolo[4,5-b]indole-7-sulfonamide]
10 | 0.1 to 10 µM | – | Cc1noc(C(CO)NC(=O)c2ccc3c(c2)c2cn(C)nc2n3-c2ccc(C(F)(F)F)cc2)n1 (centres unmarked) [Example C268, N-[2-hydroxy-1-(3-methyl-1,2,4-oxadiazol-5-yl)ethyl]-2-methyl-8-[4-(trifluoromethyl)phenyl]-2H,8H-pyrazolo[3,4-b]indole-5-carboxamide]
11 | 0.1 to 10 µM | – | Cn1cc2c3cc(C(=O)N=S4(=O)CC(C#N)C4)ccc3n(-c3ccc(C(F)(F)F)cc3)c2n1 (centres unmarked) [Example C178, N-(3-cyano-1-oxo-1¿6-thietan-1-ylidene)-2-methyl-8-[4-(trifluoromethyl)phenyl]-2H,8H-pyrazolo[3,4-b]indole-5-carboxamide]
12 | 0.1 to 10 µM | – | Cc1snc2c1c1cc(C(=O)NC3(CO)CCC3)ccc1n2-c1ccc(C(F)(F)F)cc1 [Example C82, N-[1-(hydroxymethyl)cyclobutyl]-3-methyl-8-[4-(trifluoromethyl)phenyl]-8H-[1,2]thiazolo[3,4-b]indole-5-carboxamide]
13 | 0.1 to 10 µM | – | Cn1cc2c3cc(C(=O)N4CC(C#N)C4)ccc3n(-c3ccc(C(F)(F)F)cc3)c2n1 [Example C59, 1-{2-methyl-8-[4-(trifluoromethyl)phenyl]-2H,8H-pyrazolo[3,4-b]indole-5-carbonyl}azetidine-3-carbonitrile]
14 | 0.1 to 10 µM | – | Cc1snc2c1c1cc(C(=O)N3CC[C@@H](O)C3)ccc1n2-c1ccc(C(F)(F)F)cc1 [Example C54, (3R)-1-{3-methyl-8-[4-(trifluoro-methyl)phenyl]-8H-[1,2]thiazolo[3,4-b]indole-5-carbonyl}pyrrolidin-3-ol]
